Article PMC12564265, “Navigating the Deep Eutectic Solvent Landscape: Experimental and Machine Learning Solubility Explorations of Syringic, p-Coumaric, and Caffeic Acids” (International Journal of Molecular Sciences, 2025)

Assays:
[1] = Shake-flask solubility with spectrophotometric measurement in aqueous DES mixtures; format: physicochemical
Protocol: (§1) In order to determine the solubility of the three studied phenolic acids in deep eutectic solvents, a very well-established shake-flask method coupled with spectrophotometric measurements was utilized. The initial procedure involved the preparation of various DESs, which was conducted by mixing their HBA and HBD counterparts in a glass vessel and heating the composition until the formation of a transparent, uniform liquid. […] For additional measurements, the DESs were mixed with water in varying proportions, creating aqueous DES systems. Saturated solutions of CAF, SYR, and COU were obtained by adding excess amounts of these compounds to test tubes containing either a neat deep eutectic solvent or its aqueous solution. Such samples were placed in the Orbital Shaker Incubator ES-20/60 from Biosan (Riga, Latvia) and heated for 24 h at 25 °C, 30 °C, 35 °C, and 40 °C (±0.1 °C) with simultaneous mixing at 60 rpm. Before measurements, the samples were filtered using a PTFE syringe filter from Qpore (Dallas, TX, USA) with a 0.22 μm pore size. In order to avoid possible precipitation of the saturated solutions at decreased temperatures, the test tubes, syringes, pipette tips, and filters were kept at a temperature identical to that of the samples. The spectrophotometric measurements required the preparation of calibration curves for the three APIs. This involved the preparation of a stock solution of each compound in methanol, which was later successfully diluted, and the obtained solutions of varying concentrations were measured using an A360 spectrophotometer from AOE Instruments (Shanghai, China). The wavelength range was set to 200-500 nm, and the resolution was 1 nm. The analytical wavelengths were determined to be 324 nm for caffeic acid, 273 nm for syringic acid, and 308 nm for p-coumaric acid. The final regression equations, obtained after averaging three distinct sets of measurements, are collected in Table 2 together with determination coefficients and limits of detection (LOD) and quantification (LOQ) for the calibration curves. The measurements of the samples were conducted with the same spectrophotometer and identical settings. Methanol was used for the dilution of the samples so that they could remain within the linearity range of the method. Complete spectra of the samples were recorded, but for the solubility determination, the absorbance values at a specific analytical wavelength were considered. These values were combined with the corresponding regression equations of the calibration curves and served for the calculation of the concentration of the three phenolic acids in the studied samples. The densities of such samples were also measured, and for this task 1 mL of each sample was weighed to a precision of 0.1 mg using an AS 110 R2.PLUS analytical balance from […] (Radom, Poland). The obtained densities enabled the calculation of mole fractions of CAF, SYR, and COU dissolved in the studied DESs. For each considered system, three distinct measurements were conducted, and the results were averaged.

[2] = Shake-flask solubility with spectrophotometric measurement in neat deep eutectic solvents; format: physicochemical
Protocol: as §1

Mole fraction solubility ([1]; ChCl – TEG 1:2 + water, x*DES 0.3, 40°C): 0.0476±0.0003 mole fraction
Mole fraction solubility ([1]; ChCl – TEG 1:2 + water, x*DES 0.4, 25°C): 0.0254±0.0003 mole fraction
Mole fraction solubility ([1]; ChCl – TEG 1:2 + water, x*DES 0.4, 30°C): 0.0347±0.0004 mole fraction
Mole fraction solubility ([1]; ChCl – TEG 1:2 + water, x*DES 0.4, 35°C): 0.0466±0.0004 mole fraction
Mole fraction solubility ([1]; ChCl – TEG 1:2 + water, x*DES 0.4, 40°C): 0.0643±0.0006 mole fraction
Mole fraction solubility ([1]; ChCl – TEG 1:2 + water, x*DES 0.5, 25°C): 0.0324±0.0002 mole fraction
Mole fraction solubility ([1]; ChCl – TEG 1:2 + water, x*DES 0.5, 30°C): 0.0446±0.0004 mole fraction
Mole fraction solubility ([1]; ChCl – TEG 1:2 + water, x*DES 0.5, 35°C): 0.0618±0.0006 mole fraction
Mole fraction solubility ([1]; ChCl – TEG 1:2 + water, x*DES 0.5, 40°C): 0.0822±0.0010 mole fraction
Mole fraction solubility ([1]; ChCl – TEG 1:2 + water, x*DES 0.6, 25°C): 0.0401±0.0004 mole fraction
Mole fraction solubility ([1]; ChCl – TEG 1:2 + water, x*DES 0.6, 30°C): 0.0524±0.0005 mole fraction
Mole fraction solubility ([1]; ChCl – TEG 1:2 + water, x*DES 0.6, 35°C): 0.0731±0.0007 mole fraction
Mole fraction solubility ([1]; ChCl – TEG 1:2 + water, x*DES 0.6, 40°C): 0.0992±0.0012 mole fraction
Mole fraction solubility ([1]; ChCl – TEG 1:2 + water, x*DES 0.7, 25°C): 0.0475±0.0003 mole fraction
Mole fraction solubility ([1]; ChCl – TEG 1:2 + water, x*DES 0.7, 30°C): 0.0628±0.0004 mole fraction
Mole fraction solubility ([1]; ChCl – TEG 1:2 + water, x*DES 0.7, 35°C): 0.0871±0.0005 mole fraction
Mole fraction solubility ([1]; ChCl – TEG 1:2 + water, x*DES 0.7, 40°C): 0.1214±0.0012 mole fraction
Mole fraction solubility ([1]; ChCl – TEG 1:2 + water, x*DES 0.8, 25°C): 0.0541±0.0003 mole fraction
Mole fraction solubility ([1]; ChCl – TEG 1:2 + water, x*DES 0.8, 30°C): 0.0699±0.0006 mole fraction
Mole fraction solubility ([1]; ChCl – TEG 1:2 + water, x*DES 0.8, 35°C): 0.1009±0.0006 mole fraction
Mole fraction solubility ([1]; ChCl – TEG 1:2 + water, x*DES 0.8, 40°C): 0.1351±0.0013 mole fraction
Mole fraction solubility ([1]; ChCl – TEG 1:2 + water, x*DES 0.9, 25°C): 0.0550 mole fraction
Mole fraction solubility ([1]; ChCl – TEG 1:2 + water, x*DES 0.9, 25°C, listed as syryngic acid): 0.0550±0.0005 mole fraction
Mole fraction solubility ([1]; ChCl – TEG 1:2 + water, x*DES 0.9, 30°C): 0.0718±0.0005 mole fraction
Mole fraction solubility ([1]; ChCl – TEG 1:2 + water, x*DES 0.9, 35°C): 0.1018±0.0008 mole fraction
Mole fraction solubility ([1]; ChCl – TEG 1:2 + water, x*DES 0.9, 40°C): 0.1373±0.0011 mole fraction
Mole fraction solubility ([1]; ChCl – TEG 1:2, x*DES 1.0 (neat DES), 25°C): 0.0515±0.0004 mole fraction
Mole fraction solubility ([1]; ChCl – TEG 1:2, x*DES 1.0 (neat DES), 30°C): 0.0660±0.0003 mole fraction
Mole fraction solubility ([1]; ChCl – TEG 1:2, x*DES 1.0 (neat DES), 35°C): 0.0917±0.0006 mole fraction
Mole fraction solubility ([1]; ChCl – TEG 1:2, x*DES 1.0 (neat DES), 40°C): 0.1234±0.0013 mole fraction
Increase in the solubility compared to the neat DES ([1]; ChCl-TEG 1:2, x*DES = 0.9 (xwater = 0.1), 25 °C): 7%
Solubility increase between 25 °C and 40 °C ([1]; neat DES (x*DES = 1.0) involving betaine (Bet-TEG 1:2)): 164%
Solubility increase between 25 °C and 40 °C ([1]; neat DES (x*DES = 1.0) with choline chloride (ChCl-TEG 1:2)): 240%
Mole fraction solubility ([2]; neat DES Bet - DEG, HBA:HBD molar ratio 1:1, 25 °C): 0.0235±0.0003 mole fraction
Mole fraction solubility ([2]; neat DES Bet - DEG, HBA:HBD molar ratio 1:2, 25 °C): 0.0311±0.0002 mole fraction
Mole fraction solubility ([2]; neat DES Bet - DEG, HBA:HBD molar ratio 1:4, 25 °C): 0.0283±0.0003 mole fraction
Mole fraction solubility ([2]; neat DES Bet - ETG, HBA:HBD molar ratio 1:1, 25 °C): 0.0132±0.0001 mole fraction
Mole fraction solubility ([2]; neat DES Bet - ETG, HBA:HBD molar ratio 1:2, 25 °C): 0.0274±0.0002 mole fraction
Mole fraction solubility ([2]; neat DES Bet - ETG, HBA:HBD molar ratio 1:4, 25 °C): 0.0205±0.0002 mole fraction
Mole fraction solubility ([2]; neat DES Bet - GLY, HBA:HBD molar ratio 1:1, 25 °C): 0.0203±0.0002 mole fraction
Mole fraction solubility ([2]; neat DES Bet - GLY, HBA:HBD molar ratio 1:2, 25 °C): 0.0358±0.0003 mole fraction
Mole fraction solubility ([2]; neat DES Bet - GLY, HBA:HBD molar ratio 1:4, 25 °C): 0.0300±0.0002 mole fraction
Mole fraction solubility ([2]; neat DES Bet - TEG, HBA:HBD molar ratio 1:1, 25 °C): 0.0317±0.0003 mole fraction
Mole fraction solubility ([2]; neat DES Bet - TEG, HBA:HBD molar ratio 1:2, 25 °C): 0.0474 mole fraction
Mole fraction solubility ([2]; neat DES Bet - TEG, HBA:HBD molar ratio 1:2, 25 °C, listed as syryngic acid): 0.0474±0.0003 mole fraction
Mole fraction solubility ([2]; neat DES Bet - TEG, HBA:HBD molar ratio 1:4, 25 °C): 0.0388±0.0003 mole fraction
Mole fraction solubility ([2]; neat DES ChCl - DEG, HBA:HBD molar ratio 1:1, 25 °C): 0.0230±0.0004 mole fraction
Mole fraction solubility ([2]; neat DES ChCl - DEG, HBA:HBD molar ratio 1:2, 25 °C): 0.0465±0.0004 mole fraction
Mole fraction solubility ([2]; neat DES ChCl - ETG, HBA:HBD molar ratio 1:1, 25 °C): 0.0186±0.0002 mole fraction
Mole fraction solubility ([2]; neat DES ChCl - ETG, HBA:HBD molar ratio 1:2, 25 °C): 0.0304±0.0002 mole fraction
Mole fraction solubility ([2]; neat DES ChCl - ETG, HBA:HBD molar ratio 1:4, 25 °C): 0.0244±0.0002 mole fraction
Mole fraction solubility ([2]; neat DES ChCl - TEG, HBA:HBD molar ratio 1:2, 25 °C): 0.0515 mole fraction
SMILES: COc1cc(C(=O)O)cc(OC)c1O [syringic acid, 4-hydroxy-3,5-dimethoxybenzoic acid]
